According to PMC5780263 (Xenobiotica; the fate of foreign compounds in biological …, 2017):

Columns and labels:
CYP2A6 = biological target: T1, CYP2A6 (Homo sapiens, UniProt P11509); details: previous studies, ref Shimada et al., 2016a; cited from earlier work
T1 sequence (P11509 1-494): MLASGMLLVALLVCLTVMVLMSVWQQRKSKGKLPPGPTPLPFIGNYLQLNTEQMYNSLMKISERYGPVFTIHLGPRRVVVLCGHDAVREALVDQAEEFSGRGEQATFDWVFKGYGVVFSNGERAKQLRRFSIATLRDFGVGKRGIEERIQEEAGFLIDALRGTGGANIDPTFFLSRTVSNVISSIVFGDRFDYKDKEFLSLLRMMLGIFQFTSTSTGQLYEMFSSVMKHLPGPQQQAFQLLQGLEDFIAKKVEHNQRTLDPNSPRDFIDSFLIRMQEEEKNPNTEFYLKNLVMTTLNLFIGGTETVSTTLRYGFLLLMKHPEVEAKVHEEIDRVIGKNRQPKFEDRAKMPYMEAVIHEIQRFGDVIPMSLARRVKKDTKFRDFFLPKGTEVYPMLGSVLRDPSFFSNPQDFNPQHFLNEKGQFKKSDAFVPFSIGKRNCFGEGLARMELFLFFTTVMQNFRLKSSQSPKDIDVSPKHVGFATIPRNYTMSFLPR

CYP2A13.1 = biological target: T2, CYP2A13.1 (Homo sapiens, UniProt Q16696); format: in vitro ADME; details: 10 µM substrate, 37 °C, 20 min, b5 added, HPLC-fluorescence
T2 sequence (Q16696 31-494 limits assumed): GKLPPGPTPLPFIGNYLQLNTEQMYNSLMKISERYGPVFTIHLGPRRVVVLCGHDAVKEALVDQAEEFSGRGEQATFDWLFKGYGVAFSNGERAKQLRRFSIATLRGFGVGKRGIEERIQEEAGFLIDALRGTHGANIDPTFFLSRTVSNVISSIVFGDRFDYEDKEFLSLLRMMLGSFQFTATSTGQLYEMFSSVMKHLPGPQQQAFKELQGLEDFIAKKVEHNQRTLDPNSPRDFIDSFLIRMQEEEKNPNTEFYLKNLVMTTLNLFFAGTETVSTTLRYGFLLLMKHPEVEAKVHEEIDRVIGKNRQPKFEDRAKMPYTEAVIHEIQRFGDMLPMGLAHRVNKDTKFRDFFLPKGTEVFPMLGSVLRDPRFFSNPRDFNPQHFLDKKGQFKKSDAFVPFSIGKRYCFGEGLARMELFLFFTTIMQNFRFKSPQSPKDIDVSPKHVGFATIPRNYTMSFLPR

CYP1B1.1 = biological target: T3, CYP1B1.1 (Homo sapiens, UniProt Q16678); format: in vitro ADME; details: 10 µM substrate, 37 °C, 20 min, HPLC-fluorescence
T3 sequence (Q16678 1-543): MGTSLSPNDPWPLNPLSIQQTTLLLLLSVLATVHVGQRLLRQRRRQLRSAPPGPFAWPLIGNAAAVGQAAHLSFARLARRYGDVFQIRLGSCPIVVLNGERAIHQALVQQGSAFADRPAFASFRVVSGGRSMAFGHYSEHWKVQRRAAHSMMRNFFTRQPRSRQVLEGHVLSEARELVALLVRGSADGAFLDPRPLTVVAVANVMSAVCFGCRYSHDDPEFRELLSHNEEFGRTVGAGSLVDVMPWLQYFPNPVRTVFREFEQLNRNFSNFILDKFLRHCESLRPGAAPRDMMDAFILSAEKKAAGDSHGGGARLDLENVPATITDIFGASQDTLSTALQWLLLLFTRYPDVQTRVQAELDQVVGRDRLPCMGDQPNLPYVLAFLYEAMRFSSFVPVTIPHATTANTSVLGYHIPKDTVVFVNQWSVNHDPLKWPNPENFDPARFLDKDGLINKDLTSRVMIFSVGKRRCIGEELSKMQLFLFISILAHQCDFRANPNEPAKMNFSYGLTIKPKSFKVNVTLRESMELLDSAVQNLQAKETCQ

CYP1A1 = biological target: T4, CYP1A1 (Homo sapiens, UniProt P04798); format: in vitro ADME; details: 10 µM substrate, 37 °C, 20 min, HPLC-fluorescence
T4 sequence (P04798 1-512): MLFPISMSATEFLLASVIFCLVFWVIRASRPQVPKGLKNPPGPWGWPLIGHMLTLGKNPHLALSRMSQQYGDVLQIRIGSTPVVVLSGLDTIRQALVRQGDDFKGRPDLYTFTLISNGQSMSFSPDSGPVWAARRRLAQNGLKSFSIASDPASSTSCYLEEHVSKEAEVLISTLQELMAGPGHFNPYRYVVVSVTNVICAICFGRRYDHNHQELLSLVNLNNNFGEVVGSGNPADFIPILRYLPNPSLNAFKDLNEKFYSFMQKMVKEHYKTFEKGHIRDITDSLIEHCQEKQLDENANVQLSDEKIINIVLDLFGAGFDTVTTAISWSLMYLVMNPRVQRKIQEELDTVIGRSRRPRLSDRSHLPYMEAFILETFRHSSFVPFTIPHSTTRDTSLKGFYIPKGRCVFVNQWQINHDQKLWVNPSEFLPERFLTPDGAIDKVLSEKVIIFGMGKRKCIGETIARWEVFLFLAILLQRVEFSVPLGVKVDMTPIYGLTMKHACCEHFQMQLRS

[1] = test system: CYP1A1, 1A2, 1B1.1, 1B1.3, 2D6, 2E1, 2C9, and 3A4; assay: Spectral binding titration with other purified human P450 enzymes; details: authors' assay conditions

CC(=O)c1ccc2ccc3cccc4ccc1c2c34 [1-acetylpyrene]
Type I binding spectra (CYP2A6): do not show detectable Type I binding spectra

Clc1ccc2ccc3cccc4ccc1c2c34 [1-chloropyrene]
Hydroxylated products formed (CYP2A13.1): catalyzed hydroxylation at the 8- and 3-positions
Hydroxylated products formed (CYP1B1.1): only formed the 6-hydroxy product
Hydroxylated products formed (CYP1A1): produced 8-, 6-, and 3-hydroxylated products at significant levels
Spectral changes [1]: did not show any detectable spectral changes

O=[N+]([O-])c1ccc2ccc3cccc4ccc1c2c34 [1-nitropyrene]
Type I binding spectra (CYP2A6): do not show detectable Type I binding spectra

c1cc2ccc3cccc4ccc(c1)c2c34 [pyrene]
Type I binding spectra (CYP2A6): do not show detectable Type I binding spectra
